Measured values reported in patent US20050113397A1, “Imidazo[1,2-a]pyridine derivative” (priority 2002, published 2005).
Converted amounts (≈) assume the structure as drawn.

What was measured:
Assay in all cases: Antifungal activity (MIC), US NCCLS Standard Method M27-A, yeasts
Type in all cases: cell-based
Saccharomyces cerevisiae = conditions: for MIC: read-out: MIC (minimal inhibitory concentration for growth)
Experimental: (§1) The antifungal activity of the compound of the invention was determined according to the US NCCLS Standard Method (M27-A, 1997) against yeasts (Candida, Cryptococcus); and according to the US NCCLS Standard Method (M38-P, 1998) against molds (Aspergillus). The result is expressed in values of MIC (minimal inhibitory concentration for growth, μg/ml) in Table 7.

Candida glabrata = conditions: for MIC: Nakaseomyces glabratus, read-out: MIC (minimal inhibitory concentration for growth)
Experimental: as §1

Candida krusei = conditions: for MIC: Pichia kudriavzevii, read-out: MIC (minimal inhibitory concentration for growth)
Experimental: as §1

Structure (SMILES)	MIC (minimal inhibitory concentration for growth) (Saccharomyces cerevisiae)	MIC (minimal inhibitory concentration for growth) (Candida glabrata)	MIC (minimal inhibitory concentration for growth) (Candida krusei)	MIC (Saccharomyces cerevisiae)	MIC (Candida glabrata)	MIC (Candida krusei)
CCc1c(C)c(C#N)c2nc3ccccc3n2c1NCCN(CC)CC [Example 1, 1-(2-N′,N′-Diethylaminoethylamino)-2-ethyl-3-methylpyrido[1,2-a]benzimidazole-4-carbonitrile]	16 mg/L	2 mg/L	8 mg/L	–	–	–
Cc1c(-c2ccccc2)c(N2CC[C@H](N(C)C)C2)n2c(nc3ccccc32)c1C#N.O=CO [Example 6]	<0.063 mg/L	<0.063 mg/L	0.5 mg/L	–	–	–
CCCCCCc1c(C)c(C#N)c2nc3ccccc3n2c1N1CC(CN(C)C)C1 [Example 11, 2-n-Hexyl-1-[3-(dimethylaminomethyl)azetidin-1-yl]-3-methylpyrido[1,2-a]benzimidazole-4-carbonitrile]	–	–	–	2 mg/L (≈ 4.96 µM)	16 mg/L (≈ 39.6 µM)	32 mg/L (≈ 79.3 µM)
CCCCCCc1c(C)c(C#N)c2nc3ccccc3n2c1N1CCCN(C)CC1 [Example 12, 2-n-Hexyl-1-(4-methylhomopiperazin-1-yl)-3-methylpyrido[1,2-a]benzimidazole-4-carbonitrile]	–	–	–	> 32 mg/L	128 mg/L (≈ 317 µM)	> 128 mg/L
Cc1c(Cc2cccc(N)c2)c(N2CC[C@H](N(C)C)C2)n2c(nc3ccccc32)c1C#N [Example 60, 2-(3-Aminobenzyl)-1-[(3S)-dimethylaminopyrrolidinyl]-3-methylpyrido[1,2-a]benzimidazole-4-carbonitrile]	64 mg/L	16 mg/L	>128 mg/L	–	–	–
Cc1c(CCO)c(N2CC[C@H](N(C)C)C2)n2c(nc3ccccc32)c1C#N [Example 66, 1-[(3S)-dimethylaminopyrrolidin-1-yl]-2-(2-hydroxyethyl)-3-methylpyrido[1,2-a]benzimidazole-4-carbonitrile]	16 mg/L	32 mg/L	16 mg/L	–	–	–
Cc1c(C(C)C)c(N2CC[C@H](N(C)C)C2)n2c(nc3ccccc32)c1C#N [Example 87, 2-Isopropyl-1-[(3S)-dimethylaminopyrrolidin-1-yl]-3-methylpyrido[1,2-a]benzimidazole-4-carbonitrile]	2 mg/L	1 mg/L	8 mg/L	–	–	–
CCc1c(C)c(C#N)c2nc3ccccc3n2c1C1=CC(N)CC1 (stereo not drawn) [Example 95, 1-(3-Amino-1-cyclopenten-1-yl)-2-ethyl-3-methylpyrido[1,2-a]benzimidazole-4-carbonitrile]	–	–	–	16 mg/L (≈ 50.6 µM)	32 mg/L (≈ 101 µM)	64 mg/L (≈ 202 µM)
